For one test, the target named is T1, Estrogen receptor (Homo sapiens, UniProt P03372).
T1 sequence (P03372 whole entry): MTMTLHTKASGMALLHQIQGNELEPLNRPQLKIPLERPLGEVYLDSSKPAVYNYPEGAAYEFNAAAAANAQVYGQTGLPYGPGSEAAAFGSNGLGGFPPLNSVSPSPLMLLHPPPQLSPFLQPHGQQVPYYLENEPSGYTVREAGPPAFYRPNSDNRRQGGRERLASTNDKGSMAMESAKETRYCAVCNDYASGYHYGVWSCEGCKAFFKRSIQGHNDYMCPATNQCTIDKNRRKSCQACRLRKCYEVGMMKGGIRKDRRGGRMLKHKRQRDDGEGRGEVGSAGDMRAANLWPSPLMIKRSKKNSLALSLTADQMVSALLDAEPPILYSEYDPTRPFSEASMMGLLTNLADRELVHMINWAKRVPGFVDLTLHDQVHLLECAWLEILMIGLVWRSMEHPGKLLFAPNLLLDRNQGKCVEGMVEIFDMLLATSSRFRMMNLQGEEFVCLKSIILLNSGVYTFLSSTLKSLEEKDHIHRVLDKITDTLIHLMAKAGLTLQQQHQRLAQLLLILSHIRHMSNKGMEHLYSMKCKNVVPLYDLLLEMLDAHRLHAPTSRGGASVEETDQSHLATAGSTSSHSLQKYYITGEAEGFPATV
Briefly: ERα coactivator recruitment enhancers – biochemical, TR-FRET, ERα LBD, dose response (AID 737). A general note: In TR-FRET formats the signal depends on donor and acceptor labels being close together.

Test [1] can be described thus: THP-1 cell cytotoxicity, dose response, cytotoxicity control for non-replicating M. tuberculosis project (AID 489025). Format: functional.
Test [2] in a line: HepG2 cell cytotoxicity, dose response, cytotoxicity control for non-replicating M. tuberculosis project (AID 489018). The note with it: Mycobacterium tuberculosis. Type of test: functional.
Test [3] can be described thus: cAMP pathway inhibition in counterscreen cell line – TR-FRET cAMP detection, counter-screen for MC4R biased antagonist project, dose response (AID 602305).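 Further: U2OS cells stimulated with forskolin near its EC80 as the cAMP inducer; potency is for inhibition of forskolin-stimulated cAMP signaling.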 Type of test: functional, cell-based. On the technique in general: Counterscreens check selectivity or assay interference.
The target in test [4] is T2, Melanocortin receptor 4 (Homo sapiens, UniProt P32245). Briefly: inhibitors of MC4R cAMP signaling – cell-based, TR-FRET, biased antagonists, dose response (AID 602298).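 Further: antagonist potency against agonist-stimulated cAMP production.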 Format: functional.
Test [5] in a line: reduction of Shn3 3'UTR-driven luciferase in osteoblasts – cell-based, Clone20 osteoblasts, firefly luciferase, cherry-picked, dose response (AID 624132).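 Further: firefly luciferase luminescence from reporter carrying the Shn3 3'UTR in osteoblasts.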 Format: functional.
A short description of test [6]: HPDE-C7 pancreatic duct cell viability loss – fluorescence, HTS (AID 430). Format: functional, cell-based. The note with it: Homo sapiens.
Test [7] is described as follows: viability loss of HPDE-C7K cells – cell-based, fluorescence, HTS, primary screen (AID 431). Type of test: functional. The note with it: Homo sapiens.
The target of a further test is Hexokinase HKDC1 (Homo sapiens, UniProt Q2TB90). Kind of test: inhibition of HKDC1 glucose phosphorylation – biochemical, W721R variant, dose response (AID 504729). Format: functional.
The nature of a further test: cells. Format: functional.
A short description of test [8]: loss of viability in HepG2 cells – cell-based, CellTiter-Glo, cherry-picked, cytotoxicity control for Shn3 inhibitor project, dose response (AID 624134). Type of test: functional.
Test [9] concerns the target Eukaryotic translation initiation factor 4H (Homo sapiens, UniProt Q15056). Kind of test: inhibitors of translation initiation factor eIF4H – SAR follow-up (AID 435011). Format: functional.
For test [10], the target named is Polyadenylate-binding protein 1 (Homo sapiens, UniProt P11940). Briefly: PABP inhibition in translation initiation, SAR follow-up (AID 435018). Type of test: functional.
The target of test [11] is T3, Corticotropin-releasing factor receptor 2/Corticotropin-releasing factor-binding protein (Homo sapiens, UniProt P24387+Q13324).
T3 sequence (Q13324 whole entry): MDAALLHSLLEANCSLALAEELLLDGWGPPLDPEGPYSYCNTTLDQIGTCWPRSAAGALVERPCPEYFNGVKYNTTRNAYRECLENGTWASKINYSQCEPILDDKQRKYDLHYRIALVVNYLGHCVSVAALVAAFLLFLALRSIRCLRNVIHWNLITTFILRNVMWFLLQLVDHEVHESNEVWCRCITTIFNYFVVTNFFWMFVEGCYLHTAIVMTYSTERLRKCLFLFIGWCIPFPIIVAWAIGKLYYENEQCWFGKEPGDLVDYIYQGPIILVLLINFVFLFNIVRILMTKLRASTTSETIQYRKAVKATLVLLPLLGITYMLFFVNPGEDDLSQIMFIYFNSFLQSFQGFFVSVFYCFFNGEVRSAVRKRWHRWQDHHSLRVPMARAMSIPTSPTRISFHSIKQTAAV
T3 sequence (P24387 whole entry): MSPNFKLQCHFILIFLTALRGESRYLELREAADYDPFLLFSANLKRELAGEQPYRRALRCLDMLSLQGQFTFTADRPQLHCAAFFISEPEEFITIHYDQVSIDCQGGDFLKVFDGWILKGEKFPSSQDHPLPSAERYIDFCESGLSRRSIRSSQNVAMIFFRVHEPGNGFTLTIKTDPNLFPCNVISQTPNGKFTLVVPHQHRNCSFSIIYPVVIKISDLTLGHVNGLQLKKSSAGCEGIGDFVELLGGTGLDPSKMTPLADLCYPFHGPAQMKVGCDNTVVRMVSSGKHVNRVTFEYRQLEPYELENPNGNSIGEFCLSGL
Kind of test: Dose Response confirmation of uHTS hits for small molecule antagonists of the CRF-binding protein and CRF-R2 receptor complex. To be noted: read-out: IC50_Mean. Format: functional.

The target in another test is Caspase-7 (Homo sapiens, UniProt P55210). Briefly: activation of caspase-7 zymogen – biochemical, absorbance, counter-screen for procaspase-3 activator project, dose response (AID 489013).
Test [12] deals with T3, Corticotropin-releasing factor receptor 2/Corticotropin-releasing factor-binding protein. Kind of test: activators of CRF receptor 2 with binding protein – uHTS hits, confirmation (AID 602473). Format: functional. The note with it: read-out: EC50_Mean.
A further test addresses T4, Caspase-3 (Homo sapiens, UniProt P42574).
T4 sequence (P42574 whole entry): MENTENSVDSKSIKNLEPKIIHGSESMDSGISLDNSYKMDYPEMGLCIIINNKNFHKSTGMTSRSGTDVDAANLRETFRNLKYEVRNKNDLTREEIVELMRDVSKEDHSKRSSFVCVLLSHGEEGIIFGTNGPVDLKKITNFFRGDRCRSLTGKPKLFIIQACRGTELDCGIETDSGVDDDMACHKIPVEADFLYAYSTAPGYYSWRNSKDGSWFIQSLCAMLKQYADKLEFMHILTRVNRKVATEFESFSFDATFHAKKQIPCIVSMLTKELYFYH
Kind of test: activation of caspase-3 zymogen – biochemical, absorbance, dose response (AID 489014).

The target in a further test is Cytochrome P450 3A4 (Homo sapiens, UniProt P08684).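 Further: CYP3A4 tested as one member of a cytochrome P450 panel screen.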
The target in another test is Mu-type opioid receptor (Homo sapiens, UniProt P35372). Briefly: HTS Image-Based Screen for Agonists of the MOR Receptor. [Related pubchem assays (depositor defined):AID1777, AID1785, AID1786, AID2133]. Format: functional.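 Further: imaging of beta-arrestin GFP recruitment into spots after receptor activation.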
The target in test [13] is T5, Kappa-type opioid receptor (Homo sapiens, UniProt P41145). Type of test: functional.
Test [14] has as its target T5, Kappa-type opioid receptor. Type of test: functional. The source holds these as a separate data set.
The target in test [15] is T2, Melanocortin receptor 4. Type of test: functional, cell-based.
The target in test [16] is T6, Delta-type opioid receptor (Homo sapiens, UniProt P41143). Briefly: HTS Image-Based Screen for Agonists of the DOR Receptor. [Related pubchem assays (depositor defined):AID1777, AID1786, AID2133]. Type of test: functional.
Test [17] addresses T6, Delta-type opioid receptor. Kind of test: HTS Image-Based Screen for Antagonists of the DOR Receptor. [Related pubchem assays (depositor defined):AID1777, AID1785, AID1786, AID2133]. Format: functional.

Structures are written as SMILES. Active and inactive are the calls of the source.

T6 sequence (P41143 whole entry): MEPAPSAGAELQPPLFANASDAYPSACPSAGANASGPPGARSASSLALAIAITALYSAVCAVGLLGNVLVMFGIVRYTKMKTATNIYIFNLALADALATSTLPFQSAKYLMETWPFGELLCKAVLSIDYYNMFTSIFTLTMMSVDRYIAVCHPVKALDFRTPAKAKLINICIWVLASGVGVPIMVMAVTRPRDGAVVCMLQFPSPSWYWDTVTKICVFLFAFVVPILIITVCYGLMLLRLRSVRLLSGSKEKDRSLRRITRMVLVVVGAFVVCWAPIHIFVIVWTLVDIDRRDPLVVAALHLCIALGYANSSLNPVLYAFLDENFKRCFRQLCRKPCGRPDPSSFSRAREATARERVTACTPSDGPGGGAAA
T2 sequence (P32245 whole entry): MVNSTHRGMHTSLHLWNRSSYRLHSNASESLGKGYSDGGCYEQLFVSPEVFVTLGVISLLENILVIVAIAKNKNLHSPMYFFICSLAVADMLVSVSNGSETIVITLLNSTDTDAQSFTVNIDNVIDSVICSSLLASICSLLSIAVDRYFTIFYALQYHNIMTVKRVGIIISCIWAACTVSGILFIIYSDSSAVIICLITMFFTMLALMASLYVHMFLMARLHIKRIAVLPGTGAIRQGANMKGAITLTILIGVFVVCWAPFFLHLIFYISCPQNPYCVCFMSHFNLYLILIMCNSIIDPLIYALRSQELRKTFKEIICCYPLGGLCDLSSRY
T5 sequence (P41145 whole entry): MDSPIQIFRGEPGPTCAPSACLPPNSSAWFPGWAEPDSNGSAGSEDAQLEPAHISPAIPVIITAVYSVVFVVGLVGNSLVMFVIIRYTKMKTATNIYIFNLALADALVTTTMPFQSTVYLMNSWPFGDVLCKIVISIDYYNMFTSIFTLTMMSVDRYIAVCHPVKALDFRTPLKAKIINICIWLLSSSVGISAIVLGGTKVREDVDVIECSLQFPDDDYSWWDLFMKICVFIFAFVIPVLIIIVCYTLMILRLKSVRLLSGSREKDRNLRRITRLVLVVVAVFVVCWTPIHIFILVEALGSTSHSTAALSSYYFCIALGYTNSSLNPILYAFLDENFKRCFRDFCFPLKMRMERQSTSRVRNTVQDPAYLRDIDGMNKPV
Caspase-7, sequence (P55210 24-198 limits assumed): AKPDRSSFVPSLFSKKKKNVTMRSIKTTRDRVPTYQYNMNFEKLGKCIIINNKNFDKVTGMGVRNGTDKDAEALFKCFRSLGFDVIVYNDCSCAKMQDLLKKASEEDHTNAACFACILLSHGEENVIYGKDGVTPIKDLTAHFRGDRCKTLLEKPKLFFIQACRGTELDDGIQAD
Caspase-7, sequence (P55210 207-303 limits assumed): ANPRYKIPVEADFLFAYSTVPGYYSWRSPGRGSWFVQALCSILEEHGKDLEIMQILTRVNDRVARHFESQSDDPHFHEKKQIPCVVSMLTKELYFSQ
Polyadenylate-binding protein 1, sequence (P11940 whole entry): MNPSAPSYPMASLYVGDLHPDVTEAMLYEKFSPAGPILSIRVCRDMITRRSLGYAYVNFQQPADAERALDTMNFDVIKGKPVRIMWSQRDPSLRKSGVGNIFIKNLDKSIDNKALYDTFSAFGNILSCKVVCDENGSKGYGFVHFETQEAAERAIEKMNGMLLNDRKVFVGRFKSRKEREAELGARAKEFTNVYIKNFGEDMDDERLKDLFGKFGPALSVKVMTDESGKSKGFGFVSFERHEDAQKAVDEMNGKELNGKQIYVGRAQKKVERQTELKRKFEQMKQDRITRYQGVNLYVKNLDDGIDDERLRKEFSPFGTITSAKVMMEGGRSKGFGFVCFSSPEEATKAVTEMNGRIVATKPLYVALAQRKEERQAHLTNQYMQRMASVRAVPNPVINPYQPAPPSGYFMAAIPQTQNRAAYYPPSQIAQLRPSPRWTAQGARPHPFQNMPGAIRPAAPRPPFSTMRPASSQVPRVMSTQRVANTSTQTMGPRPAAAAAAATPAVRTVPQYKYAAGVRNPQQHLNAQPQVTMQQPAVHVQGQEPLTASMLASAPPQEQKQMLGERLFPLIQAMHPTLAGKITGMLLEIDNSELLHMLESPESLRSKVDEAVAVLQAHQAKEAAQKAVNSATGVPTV
Hexokinase HKDC1, sequence (Q2TB90 whole entry): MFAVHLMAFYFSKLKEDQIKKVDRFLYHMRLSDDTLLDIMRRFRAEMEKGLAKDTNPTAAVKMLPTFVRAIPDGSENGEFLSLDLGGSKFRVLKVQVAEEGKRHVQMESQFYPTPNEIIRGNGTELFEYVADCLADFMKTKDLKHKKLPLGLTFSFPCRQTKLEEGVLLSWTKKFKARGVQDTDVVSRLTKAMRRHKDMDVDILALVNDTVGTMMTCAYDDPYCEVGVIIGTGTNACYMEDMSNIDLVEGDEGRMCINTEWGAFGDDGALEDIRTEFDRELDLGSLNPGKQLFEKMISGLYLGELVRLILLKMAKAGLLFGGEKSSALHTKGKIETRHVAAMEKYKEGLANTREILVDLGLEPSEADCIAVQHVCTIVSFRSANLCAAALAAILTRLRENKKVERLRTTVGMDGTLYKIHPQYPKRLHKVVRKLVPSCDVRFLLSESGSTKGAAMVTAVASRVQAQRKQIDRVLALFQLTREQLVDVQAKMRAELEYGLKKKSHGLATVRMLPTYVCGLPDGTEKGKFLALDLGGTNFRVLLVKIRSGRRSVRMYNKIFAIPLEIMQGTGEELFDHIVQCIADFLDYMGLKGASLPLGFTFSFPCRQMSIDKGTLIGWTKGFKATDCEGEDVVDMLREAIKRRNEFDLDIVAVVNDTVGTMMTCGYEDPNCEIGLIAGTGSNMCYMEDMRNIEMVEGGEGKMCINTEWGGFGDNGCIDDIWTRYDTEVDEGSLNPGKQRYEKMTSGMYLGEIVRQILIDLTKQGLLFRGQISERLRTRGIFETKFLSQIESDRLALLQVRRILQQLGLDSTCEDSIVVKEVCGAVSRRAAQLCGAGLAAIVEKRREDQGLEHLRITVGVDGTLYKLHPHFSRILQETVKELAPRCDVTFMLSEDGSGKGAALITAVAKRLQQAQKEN
Mu-type opioid receptor, sequence (P35372 whole entry): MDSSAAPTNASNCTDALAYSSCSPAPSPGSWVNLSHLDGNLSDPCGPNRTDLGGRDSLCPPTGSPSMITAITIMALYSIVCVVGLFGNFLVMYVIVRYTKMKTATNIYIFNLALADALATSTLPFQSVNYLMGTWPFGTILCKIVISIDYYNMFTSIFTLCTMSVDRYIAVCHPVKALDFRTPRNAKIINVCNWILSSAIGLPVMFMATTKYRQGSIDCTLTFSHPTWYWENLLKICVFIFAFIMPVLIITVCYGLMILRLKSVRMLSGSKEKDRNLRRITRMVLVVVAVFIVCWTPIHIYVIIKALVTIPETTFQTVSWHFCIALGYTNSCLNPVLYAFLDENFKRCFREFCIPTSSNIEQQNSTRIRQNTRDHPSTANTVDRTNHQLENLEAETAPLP
Cytochrome P450 3A4, sequence (P08684 whole entry): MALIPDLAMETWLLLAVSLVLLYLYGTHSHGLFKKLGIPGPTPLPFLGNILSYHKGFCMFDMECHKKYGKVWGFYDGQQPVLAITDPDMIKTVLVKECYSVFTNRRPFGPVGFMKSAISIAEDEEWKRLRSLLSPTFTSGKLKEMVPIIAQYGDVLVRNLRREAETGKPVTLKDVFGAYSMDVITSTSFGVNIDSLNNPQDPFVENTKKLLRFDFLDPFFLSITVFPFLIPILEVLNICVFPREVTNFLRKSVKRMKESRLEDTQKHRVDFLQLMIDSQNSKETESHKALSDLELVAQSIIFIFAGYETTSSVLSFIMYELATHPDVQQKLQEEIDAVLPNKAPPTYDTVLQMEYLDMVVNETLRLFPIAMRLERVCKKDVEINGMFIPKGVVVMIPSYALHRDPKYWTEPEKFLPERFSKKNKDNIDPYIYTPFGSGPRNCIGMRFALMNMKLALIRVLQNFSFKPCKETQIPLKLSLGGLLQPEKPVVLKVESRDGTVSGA

For the compound `CCN(CC)c1ccc2c(c1)oc(=O)c1c(Cl)cc(=O)oc12`, the EC50 on Estrogen receptor was 14.6 µM (active); in test [6], 14.2 µM (active); in test [7] it was 12.1 µM (active). In addition, the CC50 in [1] is > 40 µM (active); in [2] it was 11.7 µM (active). The IC50 in test [3] is > 64.6 µM (inactive); at Melanocortin receptor 4 [4], > 64.6 µM (inactive); on Hexokinase HKDC1 it was 22.4 µM (inactive); in “cells”, 14.6 µM (active). For the same compound, the AC50 is 2.22 µM (active) in test [5] and 8.09 µM (active) in test [8].
Take `COc1ccc(OC)c([N+]2=C3SCCCN3C(O)(c3cccs3)C2)c1` (centres undefined): the IC50 in test [9] and in [10] was > 100 µM (inactive) throughout.
Consider `COC(=O)C1=C(NC(=O)c2cccc(OC)c2)CCS1`, for which, in test [11], the IC50 is > 47.1 µM (inactive). Further, the EC50 is > 85.3 µM (inactive) at Caspase-7, > 53 µM (inactive) in test [12] and > 85.3 µM (inactive) on Caspase-3. At Cytochrome P450 3A4, the AC50 is 25.1 µM (inconclusive).
As to `Cc1ccccc1NC(=O)c1ccc(COc2ccc3c(C)cc(=O)oc3c2)cc1`, the EC50 on Mu-type opioid receptor is > 32 µM (inactive); in test [13] it was 18.1 µM; in [14], greater than 35 µM; at Melanocortin receptor 4 [15], > 89.3 µM (inactive); in [16], > 32 µM (inactive). Further, in test [17], the IC50 is > 32 µM (inactive).

Broadly, the CC50 is the concentration at which the toxic effect on the cells reaches its halfway point. As usually defined, the AC50 is the concentration giving half of the maximal activity seen.

The record behind these values is ChEMBL document CHEMBL1201862, “PubChem BioAssay data set” (2004).
